Values quoted from earlier work in patent US7807599B2, “Hydroconversion processes employing multi-metallic catalysts and method for making thereof” (Chevron U. S. A. Inc., priority 2007, dated 2010).

System: rats
Settings: as single oral dose to rats

O=CC(=O)O [glyoxylic]
LD50: 3000 mg/kg
